Test results reported in patent US7807705B2, “Potent indole-3-carbinol-derived antitumor agents” (The Ohio State University Research Foundation, priority 2007, dated 2010).
pIC50: −log10 of the molar value. “Also recorded” adds a separate entry of the source.

What was measured:
[1] = test system: Akt, GSK3β, Bad, ERKs, JNK, p38, Bcl-2 family members, survivin, NF-kB, cyclin D1, p27, p21 in PC-3 cells; test: Immunoblotting of signaling targets in PC-3 cells; type: cell-based, human; conditions: 48 h; for expression of Bax, p27, and p21: dose-dependent
Method: Immunoblotting. Biomarkers of apoptosis and signaling components associated with cell survival and growth arrest were assessed by Western immunoblotting as follows. Treated cells were washed in PBS, resuspended in SDS sample buffer, sonicated for 5 sec, and then boiled for 5 min. After brief centrifugation, equivalent amounts of proteins from the soluble fractions of cell lysates were resolved in 10% SDS-polyacrylamide gels on a Minigel apparatus, and transferred to a nitrocellulose membrane using a semi-dry transfer cell. The transblotted membrane was washed three times with TBS containing 0.05% Tween 20 (TBST). After blocking with TBST containing 5% nonfat milk for 60 min, the membrane was incubated with an appropriate primary antibody at 1:500 dilution (with the exception of anti-b-actin antibody, 1:2,000) in TBST-5% low fat milk at 4° C. for 12 h, and was then washed three times with TBST. The membrane was probed with goat anti-rabbit or anti-mouse IgG-horseradish peroxidase conjugates (1:2,500) for 90 min at room temperature, and washed three times with TBST. The immunoblots were visualized by enhanced chemiluminescence.
Indole-3-carbinol has been reported to target an array of signaling pathways to induce apoptosis and cell cycle arrest in cancer cells. […] These targets comprised three categories of biomarkers: a) phosphorylation of signaling kinases: Akt and its downstream effector GSK3β, ERKs, JNKs, and p38; b) phosphorylation/expression of Bcl-2 family members: Bad, Bax, Bcl-2, Bcl-xL, and Mcl-1; c) expression of other apoptosis and cell-cycle regulatory proteins: survivin, NF-kB/RelA, cyclin D1, p27, and p21 (FIG. 4).

[2] = Tolerability in PC-3 tumor-bearing mice (body weight, necropsy, histology, blood); type: in vivo, athymic nude mice; conditions: 10 or 25 mg/kg daily, intraperitoneal, 42 days
Method: (§1) In vivo studies. […] Body weights were measured weekly.

[3] = test system: Normal human prostate epithelial cells (PrEC); test: MTT cell viability assay; type: cell-based
From the text: (§2) Cell Culture. LNCaP androgen-responsive (p53^+/+) and PC-3 androgen-nonresponsive (p53^−/−) human prostate cancer cells were purchased from the American Type Tissue Collection (Manassas, Va.) and cultured in RPMI 1640 medium (Gibco, Grand Island, N.Y.) supplemented with 10% fetal bovine serum (FBS; Gibco).—Normal human prostate epithelial cells (PrEC) were obtained from Cambrex Bioscience-Walkersville (Walkersville, Md.), and maintained in the vendor's recommended defined prostate epithelial growth medium. All cell types were cultured at 37° C. in a humidified incubator containing 5% CO2.
(§3) Cell viability analysis. The effect of test agents on cell viability was assessed by using the MTT [3-(4,5-dimethylthiazol-2-yl)-2,5-diphenyl-2H-tetrazolium bromide] assay in six to twelve replicates. Cancer cells and PrECs were grown in 5% FBS-supplemented RPMI 1640 medium or 5% FBS-supplemented prostate epithelial growth medium, respectively, in 96-well, flat-bottomed plates for 24 h, and then exposed to various concentrations of test agents in the same medium for the indicated time intervals. […] Absorbance at 570 nm was determined on a plate reader.
(§4) These agents (A1-A24) were evaluated for their ability to reduce cell viability of PC-3 (p53^−/−) androgen-nonresponsive and LNCaP (p53^+/+) androgen-responsive prostate cancer cells after 24-h exposure by MTT assay.

[4] = NMR analysis of acid stability; type: physicochemical; conditions: CD3OD plus deuterium-labeled HCl, room temperature; indole-3-carbinol t=5 min, OSU-A9 up to 8 h
Method: Nuclear magnetic resonance (NMR) analysis of acid stability. […] To each solution was added 100 μl of deuterium-labeled HCl, and NMR spectra were recorded in a 300 MHz NMR spectrometer at room temperature at different time intervals.
Individual compounds (20 mg) were dissolved in 1 ml of deuterium-labeled methanol (CD3OD).

PC-3 cells [5] = test: Cell proliferation by direct cell counting (Coulter counter); type: cell-based, human
Method: (§5) Cell Proliferation. PC-3 and LNCaP cells were seeded into six-well plates at approximately 200,000 cells/well in 5% FBS-containing RPMI 1640 medium. Following a 24 h attachment period, cells were treated in triplicate with the indicated concentrations of test agent or DMSO vehicle in 5% FBS-containing RPMI-1640 medium. At different time intervals, cells were harvested by trypsinization, and numerated using a Coulter counter (Model Z1 D/T, Beckman Coulter, Fullerton, Calif.).
(§6) In line with the cell viability data, a concentration of at least 300 μM was required for indole-3-carbinol to attain the same level of efficacy.

LNCaP cells = test: as above; type: cell-based, human
Method: as §5, §6

PPARγ = molecular target: T1, PPARγ (Homo sapiens, UniProt P37231); test: PPRE-luciferase reporter assay for PPARγ activation in PC-3 cells; type: cell-based; conditions: even at 20 μM, 24 h
T1 construct: PC-3 cells were transfected with PPRE-X3-TK-Luc; endogenous in cells; host or cells: PC-3 cells
T1 sequence (P37231 1-505): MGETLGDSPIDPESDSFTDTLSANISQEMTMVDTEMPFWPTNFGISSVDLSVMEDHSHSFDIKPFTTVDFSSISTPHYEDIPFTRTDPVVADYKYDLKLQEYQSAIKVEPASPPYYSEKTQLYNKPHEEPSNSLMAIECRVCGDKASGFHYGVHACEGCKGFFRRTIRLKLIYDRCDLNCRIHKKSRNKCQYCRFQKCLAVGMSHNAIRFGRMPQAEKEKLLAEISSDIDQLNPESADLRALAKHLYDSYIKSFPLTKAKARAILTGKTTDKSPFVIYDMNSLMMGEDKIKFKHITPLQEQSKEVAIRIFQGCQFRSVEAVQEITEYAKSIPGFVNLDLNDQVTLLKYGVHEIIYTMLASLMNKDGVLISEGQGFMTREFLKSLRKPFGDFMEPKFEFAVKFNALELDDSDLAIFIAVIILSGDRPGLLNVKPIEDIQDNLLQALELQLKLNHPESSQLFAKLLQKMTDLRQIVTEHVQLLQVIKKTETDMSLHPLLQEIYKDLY
Method: Luciferase assay for PPARg activation. The PPRE-x3-TK-Luc reporter vector contains three copies of the PPAR-response element (PPRE) upstream of the thymidine kinase (tk) promoter-luciferase fusion gene and was kindly provided by Dr. Bruce Spiegelman (Harvard University, Cambridge, Mass.). PC-3 cells were cultured in a 100 mm plate in phenol red-free RPMI 1640 medium containing 10% FBS until the achieved 50-70% confluency, after which they were transfected with 6 μg of the plasmid using Fugene 6 (Roche, Indianapolis, Ind.) in RPMI 1640 medium. For each transfection, herpes simplex virus-thymidine kinase (HSV-TK) promoter-driven Renilla luciferase (phRL-TK) was used as an internal control for normalization. Following transfections, cells were treated as indicated, in RPMI 1640 medium containing 10% charcoal-stripped FBS. Cells were then collected into Passive Lysis Buffer (Promega), and luciferase activities in the cell lysates were determined by luminometry. All transfection experiments were carried out in triplicate plates and repeated separately at least three times.

p27 = test: Intratumoral biomarker immunoblotting of PC-3 tumor homogenates; type: in vivo, human; conditions: intraperitoneal, 42 days
Method: as §1

Bcl-xL = test: as above; type: in vivo, human; conditions: intraperitoneal, 42 days
Method: as §1

cyclin D1 = test: as above; type: in vivo, human; conditions: intraperitoneal, 42 days
Method: as §1

phospho-p38 = test: as above; type: in vivo, human; conditions: intraperitoneal, 42 days
Method: as §1

phospho-Akt = test: as above; type: in vivo, human; conditions: intraperitoneal, 42 days
Method: as §1

PC-3 cells [6] = test: Apoptosis analysis (morphology, caspase-3 activation and PARP cleavage by Western blot); type: cell-based, human; conditions: for caspase-3 activation and PARP cleavage: 48 hours, Western blot
Method: Apoptosis analysis. Drug-induced apoptotic cell death was assessed by Western blot analysis of caspase-3 activation and poly-(ADP-ribose)polymerase (PARP) cleavage. […], washed with ice-cold PBS, and resuspended in lysis buffer containing 20 mM Tris-HCl, pH 8, 137 mM NaCl, 1 mM CaCl2, 10% glycerol, 1% Nonidet P-40, 0.5% deoxycholate, 0.1% SDS, 100 μM 4-(2-aminoethyl)benzenesulfonyl fluoride, leupeptin at 10 μg/mL, and aprotinin at 10 μg/mL. Soluble cell lysates were collected after centrifugation at 10,000 g for 5 min. Equivalent amounts of proteins (60-100 μg) from each lysate were resolved in 8% SDS-polyacrylamide gels. Proteins were transferred to nitrocellulose membranes, and analyzed by immunoblotting with antibodies against caspase-3 or PARP as described below.
Drug-treated cells became shrunken, rounded, and detached from the dish.

[7] = Maximum tolerated dose determination; type: in vivo, athymic nude mice; conditions: intraperitoneal, daily for 14 days, doses up to 25 mg/kg (tested 5, 10, 25, 50 mg/kg/day)
androgen receptor (AR) = test: Immunoblotting of AR expression in LNCaP cells; type: cell-based, human; conditions: highest doses examined (data not shown)
[8] = test system: PC-3 (p53−/−) androgen-nonresponsive prostate cancer cells; test: MTT cell viability assay; type: cell-based, human; conditions: PC-3 cells, 24-h exposure
From the text: as §2, §3, §4

[9] = test system: LNCaP (p53+/+) androgen-responsive prostate cancer cells; test: MTT cell viability assay; type: cell-based, human; conditions: 24-h exposure
From the text: as §2, §3, §4

In the case of `O=[N+]([O-])c1cc(S(=O)(=O)n2cc(CO)c3ccccc32)ccc1Cl` [OSU-A9, [1-(3′-nitro-4′-chlorobenzenesulfonyl)-1H-indol-3-yl]-methanol], the “phosphorylation of Akt and its substrates GSK3b and Bad” value [1] was “dose-dependent dephosphorylation”, the “phosphorylation of ERKs, JNK, and p38” value [1] was “increased phosphorylation” and the “expression of Bax, p27, and p21” value [1] was “up-regulating the expression”. The “body weight compared to vehicle-treated controls” value [2] was “without significant loss of body weight”, the “hematological and serum chemistry findings” value [2] was “normal hematological and serum chemistry findings” and the “overt toxicity / tolerability” value [2] was “well-tolerated; also recorded: without overt signs of toxicity”. For the same compound, the “lesions observed at necropsy” value ([2]; limited to peritoneal surfaces) was “mild to moderate amounts of fibrous adhesions”, the “microscopic lesions in tissues examined” value ([2]; with the exception of the affected peritoneum) was “no treatment-associated lesions; also recorded: no significant lesions” and the “lower sensitivity of PrECs than the prostate cancer cells” value ([3]; PrEC IC50 versus PC-3 and LNCaP IC50) was 2.2-4.5 fold. The pIC50 ([3]; PrECs, MTT assay) was 5.05, the “chemical stability in 0.1 N HCl, CH2OH proton signal by NMR” value [4] was “no appreciable change” and the “concentration that completely suppressed cell proliferation” value (PC-3 cells [5]) was ≥ 2.5 µM. For the same compound, the “concentration that completely suppressed cell proliferation” value (LNCaP cells) was ≥ 2.5 µM, the PPARγ transactivation (PPARγ) was “lacked appreciable activity” and the “increase in intratumoral p27” value (p27; 10 mg/kg per day) was 1.8±0.3 fold. The “increase in intratumoral p27” value (p27; 25 mg/kg per day) was 2.7±1.4 fold, the “reduction in intratumoral Bcl-xL” value (Bcl-xL; 10 mg/kg per day) was 34±8% and the “reduction in intratumoral Bcl-xL” value (Bcl-xL; 25 mg/kg per day) was 86±4%. The “reduction in intratumoral cyclin D1” value (cyclin D1; 10 mg/kg per day) was 70±3%, the “reduction in intratumoral cyclin D1” value (cyclin D1; 25 mg/kg per day) was 88±3% and the “increase in intratumoral phospho-p38” value (phospho-p38; 10 mg/kg per day) was 9.0±3.5 fold. For the same compound, the “increase in intratumoral phospho-p38” value (phospho-p38; 25 mg/kg per day) was 10.1±2.4 fold, the “reduction in intratumoral phospho-Akt compared to vehicle-treated controls” value (phospho-Akt; 10 mg/kg per day) was 83±8% and the “reduction in intratumoral phospho-Akt compared to vehicle-treated controls” value (phospho-Akt; 25 mg/kg per day) was 94±1%. The “morphological changes, light microscopy” value (PC-3 cells [6]; 5 μM, 24 h) was “pronounced morphological changes”, the “caspase-3 activation and PARP cleavage” value (PC-3 cells [6]) was “dose-dependent effect” and the “apoptosis-inducing potency versus indole-3-carbinol” value (PC-3 cells [6]; caspase-3 activation and PARP cleavage) was 100 fold. For the same compound, the weight loss [7] was “No apparent weight loss”.
For `OCc1c[nH]c2ccccc12` [indole-3-carbinol], the AR expression (androgen receptor (AR)) was “neither agents had an appreciable effect”, the “phosphorylation of Akt and its substrates GSK3b and Bad” value [1] was “dose-dependent dephosphorylation” and the “phosphorylation of ERKs, JNK, and p38” value [1] was “increased phosphorylation”. For the same compound, the “expression of Bax, p27, and p21” value [1] was “up-regulating the expression”, the “chemical stability in 0.1 N HCl, CH2OH proton signal by NMR” value [4] was “immediate shift of the CH2 signal” and the pIC50 [8] was 3.29. For the same compound, the pIC50 [9] was 3.57, the “concentration that completely suppressed cell proliferation” value (PC-3 cells [5]) was “at least 300 μM” and the “concentration that completely suppressed cell proliferation” value (LNCaP cells) was “at least 300 μM”. For the same compound, the “morphological changes, light microscopy” value (PC-3 cells [6]; 500 μM, 48 h) was “pronounced morphological changes” and the “caspase-3 activation and PARP cleavage” value (PC-3 cells [6]) was “dose-dependent effect”.
